Publication PMC10102062, “Effects of DPTQ, a novel positive allosteric modulator of the dopamine D1 receptor, on spontaneous eye blink rate and spatial working memory in the nonhuman primate” (Psychopharmacology, 2023)

Legend:
D2 receptor = D2 receptor (Homo sapiens, UniProt P14416); assay: Broad screening binding study with 3[H]-raclopride; settings: 3[H]-raclopride as ligand; unpublished findings
human D1 receptor = target: T1, human D1 receptor (Homo sapiens, UniProt P21728); assay: cAMP assay: potentiation of EC20 dopamine in transiently transfected HEK293 cells; type: cell-based; settings: human D1, HEK293 transient, n = 4
T1 construct: expressed in transfected cells; host or cells: HEK293 (transient, Jump-In vector)
T1 sequence (P21728 whole entry): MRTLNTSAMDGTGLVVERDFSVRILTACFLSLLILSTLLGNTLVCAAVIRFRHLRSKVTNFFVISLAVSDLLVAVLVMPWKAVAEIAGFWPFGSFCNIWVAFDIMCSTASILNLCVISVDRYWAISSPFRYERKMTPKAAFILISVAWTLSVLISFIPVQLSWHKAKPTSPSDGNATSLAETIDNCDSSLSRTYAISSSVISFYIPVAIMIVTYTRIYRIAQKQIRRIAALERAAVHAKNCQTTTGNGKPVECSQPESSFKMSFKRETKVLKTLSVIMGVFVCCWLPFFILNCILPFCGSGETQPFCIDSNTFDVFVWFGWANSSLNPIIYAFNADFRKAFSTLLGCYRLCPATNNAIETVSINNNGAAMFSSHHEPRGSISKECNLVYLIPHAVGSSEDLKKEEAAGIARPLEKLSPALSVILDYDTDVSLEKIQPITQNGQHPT
Protocol: (§1) The human, rhesus monkey, dog, or mouse D1 receptor was cloned into the Jump-In vector system (Life Technologies Corp, CA) and transiently transfected into HEK293 cells. Increases in cAMP by DPTQ (free base, Eli Lilly) were measured in the presence of an EC20 concentration of dopamine. The EC50 values for each species along with % max stimulation (where dopamine max stimulation equals 100%) are presented in Table 1. These in vitro studies were performed at Eli Lilly and Company, Indianapolis, in USA. For further details on the measurement of effects on cAMP accumulation in these transiently transfected cells, see Hao et al. ([2019]).

[1] = target: T2, rhesus monkey D1 receptor (Macaca mulatta, UniProt O77680); assay: as above; type: cell-based; settings: rhesus D1, HEK293 transient, n = 4
T2 construct: expressed in transfected cells; host or cells: HEK293 (transient, Jump-In vector)
T2 sequence (O77680 whole entry): as the sequence (P21728 whole entry) above, with N311I counted along it
Protocol: as §1

mouse D1 receptor = target: T3, mouse D1 receptor (Mus musculus, UniProt Q61616); assay: as above; type: cell-based; settings: mouse D1, HEK293 transient, n = 4
T3 construct: expressed in transfected cells; host or cells: HEK293 (transient, Jump-In vector)
T3 sequence (Q61616 whole entry): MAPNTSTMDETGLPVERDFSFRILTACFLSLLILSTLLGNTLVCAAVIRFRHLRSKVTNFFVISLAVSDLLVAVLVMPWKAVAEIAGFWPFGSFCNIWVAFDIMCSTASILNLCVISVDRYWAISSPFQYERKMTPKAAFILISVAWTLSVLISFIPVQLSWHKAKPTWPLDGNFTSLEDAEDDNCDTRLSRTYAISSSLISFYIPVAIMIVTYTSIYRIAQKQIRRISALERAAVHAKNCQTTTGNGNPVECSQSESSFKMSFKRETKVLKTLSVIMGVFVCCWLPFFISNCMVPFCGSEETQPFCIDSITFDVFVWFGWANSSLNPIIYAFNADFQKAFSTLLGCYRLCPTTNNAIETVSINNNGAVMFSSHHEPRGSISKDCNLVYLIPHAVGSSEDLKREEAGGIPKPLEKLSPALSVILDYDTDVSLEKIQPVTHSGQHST
Protocol: as §1

dog D1 receptor = assay: as above; type: cell-based; settings: dog D1, HEK293 transient, n = 4
Protocol: as §1

rhesus monkeys = assay: Spontaneous eye blink rate, cumulative dosing; type: in vivo, rhesus monkey
Source text: Eleven 5–6-year-old, male rhesus monkeys (Chengdu Ping, An Animal Breeding and Research Base, Sichuan Province, China) with an average weight of 4.83 kg were included in the study. The animals were randomly divided into three groups, DPTQ higher cumulative dose group (n = 4); DPTQ lower cumulative dose group (n = 3); and vehicle (20% Captisol (CyDex Pharmaceuticals, Inc., KS) in NaPO4 buffer) group (n = 4). The D1 agonist SKF82958 was included as a positive control; the results for this compound (not shown here) were recently published together with data for a different D1PAM (DETQ, see Bruns et al. [2018]). The D1 selective antagonist SCH39166 hydrobromide (Cat No.: 2299, Batch No.: 3A/129719) was purchased from Tocris, MN, and was prepared in Millipore pure water with the injection volume 0.2 ml/kg. The D1 antagonist was dosed 15 min before vehicle or DPTQ (n = 4 animals per group).
Spontaneous eye blinking rate was measured during observational experiments conducted in a specially constructed monkey chair (Mason et al. [2019]). A U-shaped neck plate that helped to fixate the orientation of the head was used to facilitate observation of eye blink rate response. A compact video camera (Panasonic/wv-cp480/CH) on a tripod was positioned in front of the seated monkey. Two camera images were combined by video collector (Color QUAD system) and transferred to the EthoVision software (Noldus, Leesburg, VA) on the computer for on-line viewing and recording.
Two weeks before testing, monkeys were trained daily to sit in the monkey chair for two 2-h periods with food reward. During post-training test sessions conducted between 9:00 am and 4:30 pm every day, each monkey was studied for nine consecutive 15-min components. Each 15-min block consisted of a 10-min habituation period followed by a 5-min period during which eye blinking was counted. […] Observers blind to the treatment conditions later scored each 5-min videotaped session. An eye blink was defined as a visible, rapid opening and closing of the eyelid. Two observers independently confirmed the measurement with reliability > 90%.
The effects of different D1 ligands on spontaneous eye blink rate were studied by a cumulative dosing procedure (Jutikiewicz and Bergman 2004). Active compound or vehicle (Captisol 20% w/v NaPO4 buffer) was administered after obtaining two baseline eye blink recordings. The ligand was given in random order to different monkeys of each group as described above. To study dose response and time course, incremental doses of DPTQ were administrated at the end of 15-min components of each test session.
DPTQ (free base, see Hao et al. [2019]) was supplied by Eli Lilly Company. Captisol (Lot No.: NC-04A-05034) was prepared as follows: Captisol 20% w/v NaPO4 buffer 25 mM, pH 8. The injection volume for DPTQ was 0.5 ml/kg IM. DPTQ at 0.1 mg/kg, 0.5 mg/kg, and 1 mg/kg were dosed as clear solution, while the 5 mg/kg and 10 mg/kg doses were formulated as fine suspensions. The above vehicle solution was stored at 4℃ in a refrigerator and restored to room temperature before use. When preparing DPTQ fresh daily, a portion of the vehicle (20% Captisol) was added to the compound and stirred to wet, followed by addition of the remainder of the vehicle and mixing until the solution became homogeneous. The suspension was then sonicated on an ice bath for 40 min to reduce particle size. Animals were dosed while in the chair.
Results for each monkey were expressed as the rate of eye blinking (blinks per minute) averaged over each 5-min testing epoch. The effects of vehicle and D1 PAM on eye blinking were averaged for each group of monkeys and expressed as mean ± SE. The effects of DPTQ and vehicle were analyzed with two-way ANOVA (D1 PAM and time) followed by Bonferroni post hoc test (GraphPad Prism, San Diego CA).

D2 receptor, sequence (P14416 whole entry): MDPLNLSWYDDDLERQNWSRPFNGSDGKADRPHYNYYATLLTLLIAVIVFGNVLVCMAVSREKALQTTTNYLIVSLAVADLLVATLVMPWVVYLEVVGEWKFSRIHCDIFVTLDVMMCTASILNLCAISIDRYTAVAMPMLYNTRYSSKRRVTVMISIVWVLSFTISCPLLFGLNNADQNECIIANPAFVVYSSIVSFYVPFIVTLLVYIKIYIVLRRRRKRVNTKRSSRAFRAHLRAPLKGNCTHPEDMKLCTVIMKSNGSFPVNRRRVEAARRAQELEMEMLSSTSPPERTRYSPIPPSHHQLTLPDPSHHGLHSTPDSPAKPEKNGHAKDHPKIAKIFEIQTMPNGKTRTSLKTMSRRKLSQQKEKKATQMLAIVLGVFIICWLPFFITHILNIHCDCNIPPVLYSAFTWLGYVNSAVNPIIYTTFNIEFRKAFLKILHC

For `C[C@H]1c2cccc(CC(C)(C)O)c2C[C@H](CO)N1C(=O)Cc1c(Cl)cccc1Cl` [DPTQ], the Ki (D2 receptor) was over 5.6 µM, the EC50 (human D1 receptor) was 22.9 nM and the “Max stimulation (% of max DA)” value (human D1 receptor) was 77 % of max DA. The EC50 [1] was 38 nM, the “Max stimulation (% of max DA)” value [1] was 82 % of max DA and the EC50 (mouse D1 receptor) was 534 nM. For the same compound, the “Max stimulation (% of max DA)” value (mouse D1 receptor) was 41 % of max DA, the EC50 (dog D1 receptor) was 21.5 nM and the “Max stimulation (% of max DA)” value (dog D1 receptor) was 88 % of max DA. The “Increase in eye blink rate after SCH39166 pretreatment” value (rhesus monkeys; DPTQ 0.5, 5, 10 mg/kg cumulative, SCH39166 0.03 mg/kg IM 15 min before) was “small, non-significant”, the Oral movement (rhesus monkeys; both high and lower cumulative doses, clear effect only at higher dose at 30 min) was “some degree of oral movement such as tongue protrusion” and the “Spontaneous eye blink rate vs vehicle” value (rhesus monkeys; higher cumulative dose 0.5, 5 and 10 mg/kg IM, at 30, 45, 60 and 75 min) was “significant increases”. The “Spontaneous eye blink rate vs vehicle” value (rhesus monkeys; lower cumulative dose 0.1, 1 and 5 mg/kg IM, only at 45 and 60 min) was “small but significant”.
